Molecular target: T1, GABA-A receptor; alpha-3/beta-3/gamma-2 (Homo sapiens, UniProt P18507+P28472+P34903)
T1 sequence (P18507 whole entry): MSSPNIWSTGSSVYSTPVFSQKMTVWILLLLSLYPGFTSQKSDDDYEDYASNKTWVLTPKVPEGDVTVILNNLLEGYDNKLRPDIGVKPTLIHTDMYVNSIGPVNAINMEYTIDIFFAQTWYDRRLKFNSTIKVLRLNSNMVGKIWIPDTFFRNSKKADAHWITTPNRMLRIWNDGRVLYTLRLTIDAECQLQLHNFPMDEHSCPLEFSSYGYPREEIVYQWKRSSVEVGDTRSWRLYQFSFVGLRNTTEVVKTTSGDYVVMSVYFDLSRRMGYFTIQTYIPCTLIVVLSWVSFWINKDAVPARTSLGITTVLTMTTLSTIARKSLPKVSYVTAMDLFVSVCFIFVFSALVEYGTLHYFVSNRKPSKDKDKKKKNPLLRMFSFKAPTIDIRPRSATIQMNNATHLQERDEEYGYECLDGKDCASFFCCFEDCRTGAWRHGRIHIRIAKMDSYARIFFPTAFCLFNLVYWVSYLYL
T1 sequence (P28472 whole entry): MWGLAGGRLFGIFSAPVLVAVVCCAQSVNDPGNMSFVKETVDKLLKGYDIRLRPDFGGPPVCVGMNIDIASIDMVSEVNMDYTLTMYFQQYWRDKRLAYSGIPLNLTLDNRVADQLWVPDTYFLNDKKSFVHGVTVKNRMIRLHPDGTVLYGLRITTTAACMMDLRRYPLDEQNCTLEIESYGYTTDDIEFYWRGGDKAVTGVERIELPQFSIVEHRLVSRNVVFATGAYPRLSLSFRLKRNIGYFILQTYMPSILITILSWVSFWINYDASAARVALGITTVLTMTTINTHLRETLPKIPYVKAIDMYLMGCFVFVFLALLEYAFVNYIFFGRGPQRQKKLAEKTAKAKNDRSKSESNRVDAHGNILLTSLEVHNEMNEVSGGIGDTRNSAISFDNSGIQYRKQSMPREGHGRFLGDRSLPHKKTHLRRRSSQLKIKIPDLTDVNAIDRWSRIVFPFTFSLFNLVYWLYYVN
T1 sequence (P34903 whole entry): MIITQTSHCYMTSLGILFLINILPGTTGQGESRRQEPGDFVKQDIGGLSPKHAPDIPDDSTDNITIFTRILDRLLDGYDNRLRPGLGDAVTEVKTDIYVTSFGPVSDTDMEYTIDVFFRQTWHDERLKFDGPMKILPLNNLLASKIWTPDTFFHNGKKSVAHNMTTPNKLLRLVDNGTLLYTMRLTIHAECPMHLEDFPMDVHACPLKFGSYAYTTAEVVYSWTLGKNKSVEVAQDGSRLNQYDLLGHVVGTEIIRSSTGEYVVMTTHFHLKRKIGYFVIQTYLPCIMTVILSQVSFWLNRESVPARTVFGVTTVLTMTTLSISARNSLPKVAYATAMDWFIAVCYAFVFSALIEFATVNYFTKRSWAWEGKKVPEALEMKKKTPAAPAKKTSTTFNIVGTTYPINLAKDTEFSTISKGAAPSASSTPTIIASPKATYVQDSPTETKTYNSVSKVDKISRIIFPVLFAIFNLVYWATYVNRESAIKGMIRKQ
Experiment: In vitro inhibition of [3H]-Ro- 15-1788 binding to human GABA-A receptor alpha-3-beta-3-gamma-2 subunits expressed in L(tk-)cells
Format: cell-based

- Ki: 858 nM
Structure (SMILES): C#Cc1ccc2c(c1)C(=O)N(C)Cc1c(C(=O)OCCCOC(=O)c3ncn4c3CN(C)C(=O)c3cc(C#C)ccc3-4)ncn1-2
